# Laboratory results from patent US20070092460A1, “Silylated compounds as precursors for self-tanning compositions” (priority 2000, published 2007).
# Test: in vitro colour development test with lysine solution (Bobin et al.)
# Method: 0.02 mol/l of lysine are dissolved in a phosphate buffer system in accordance with DIN 19268 (pH 7). 10 ml of this solution are treated with 0.002 mol of 1,3-bis(trimethylsiloxy)-2-propanone and the mixture is stirred at 32-35° C. for 72 h.
# As comparison, 10 ml of the lysine solution are treated with 0.002 mol of dihydroxyacetone and stirred at 32-35° C. for 72 h.
smiles,measurement,setting,value
"C[Si](C)(C)OCC(=O)CO[Si](C)(C)C [1,3-bis(trimethylsiloxy)-2-propanone, 1,3-bis(Trimethylsiloxy)-2-propanone]",brown coloration,"0.002 mol substance in 10 ml of 0.02 mol/l lysine in phosphate buffer pH 7, stirred at 32-35° C. for 72 h",comparable brown coloration
same,rate of development of the brown coloration,"compared with dihydroxyacetone, lysine in phosphate buffer pH 7, 32-35° C.",develops more slowly
